Experiment [1] deals with IRS-2. Kind of experiment: 32P metabolic labeling and immunoprecipitation of IRS-2, MB102-9 cells. In kind it is cell-based, mink. The conditions noted are these: MB102-9 cells (αIβII); IGFBP-3 1 μg/ml, GM-CSF 1 nM.
For experiment [2], the system named is IRS-2. Kind of experiment: 32P metabolic labeling and immunoprecipitation of IRS-2, DR26 cells. In kind it is cell-based, mink. Particulars: IGFBP-3 1 μg/ml.
In experiment [3] the test system is PEA-13 cells. In words: Cell growth (cell number), PEA-13 cells. In kind it is cell-based, mouse. Particulars: IGFBP-3 up to 1 μg/ml. The method, then:
FIG. 7 depicts the effect of TGF-β1 on DNA synthesis (A), cell growth (B) and PAI-1 expression (C) in MEF and PEA-13 cells. (A) Cells were treated with various concentrations of TGF-β1 as indicated. DNA synthesis was determined by measuring [methyl-^3H] thymidine incorporation into cellular DNA. The [methyl-^3H] thymidine incorporation in cells treated without TGF-β1 (100,861±3,720 and 103,262±6,722 cpm/well for MEF and PEA-13 cells, respectively) was taken as 0% inhibition. The negative values of inhibition indicate mitogenic activity. […] Each datapoint is the mean±S.D. of quadruplicate determinations. […] Data are representative of six similar experiments. (B) Cells were treated with various concentrations of TGF-β1 as indicated. The cell number was counted after a 4 day incubation. […] The negative values of the inhibition indicate the growth stimulatory activity. Each datapoint is the mean±S.D. of quadruplicate determinations. […] Data are representative of four similar experiments. (C) Cells were treated with various concentrations of TGF-β1 as indicated. The PAI-1 expression in these cells was determined by Northern blot analysis. […] The relative levels of the transcripts were quantified by a PhosphoImager. […]
Cells were plated at a density of 1-2×10^4 cells/dish in DMEM containing 1% fetal calf serum. The cell number was counted every day or after a 3-day incubation using a hematocytometer. […]

Experiment [4] deals with TβR-V/IGFBP-3 receptor. Particulars: Mv1Lu cells; read-out: Kd of IGFBP-3 binding to its receptor; cited from earlier work.
For experiment [5], the system named is PEA-C11 cells. Kind of experiment: Cell growth (cell number), PEA-C11 cells. Particulars: IGFBP-3 0.5 μg/ml, PEA-C11, 4-day. In kind it is cell-based, mink. The procedure: (§1) FIG. 6 depicts the effects of IGFBP-3 and TGF-β1 on DNA synthesis (A), cell growth (B) and PAI-1 expression (C) in Mv1Lu and PEA-C11 cells. (A,B) Cells were incubated with various concentrations of IGFBP-3 (a) or TGF-β1 (b) as indicated. DNA synthesis and cell growth were determined by measuring the [methyl-^3H] thymidine incorporation into cellular DNA after 18 hr incubation (A) and by counting cell number after a 4-day incubation (B), respectively. The [methyl-^3H] thymidine incorporation in cells treated without IGFBP-3 and TGF-β1 (29,170±1,657 and 59,947±7,692 cpm/well for Mv1Lu and PEA-C11 cells, respectively) were taken as 0% inhibition. […] Each data point is the mean±S.D. of quadruplicate determinations. […] Data are representative of eight similar experiments. (C) Cells were incubated with various concentrations of TGF-β1 as indicated. After 2 hr at 37° C., the PAI-1 expression was determined by Northern blot analysis. The expression of glyceraldehyde-3-phosphate dehydrogenase (G3PDH) was used as control. The relative levels of the transcripts were quantified by a Phospholmager. Data are representative of four similar experiments.
(§2) Cells were plated at a density of 1-2×10^4 cells/dish in DMEM containing 1% fetal calf serum. The cell number was counted every day or after a 3-day incubation using a hematocytometer. The assays were performed in quadruplicate.

The subject of experiment [6] is 32D/IRS-1 cells. In words: [methyl-3H] thymidine incorporation, 32D/IRS-1 cells. In kind it is cell-based, murine. The conditions noted are these: 32D cells expressing IRS-1.
Experiment [7] has as its system PEA-C11 cells. Kind of experiment: [methyl-3H] thymidine incorporation, PEA-C11 cells. In kind it is cell-based, mink. The conditions noted are these: IGFBP-3 0.5 μg/ml. Background: Uptake of a labelled nucleoside into DNA is a usual measure of proliferation.
The subject of experiment [8] is MEF cells. In words: [methyl-3H] thymidine incorporation, MEF cells. The conditions noted are these: IGFBP-3 up to 1 μg/ml. The class given is cell-based, mouse. The procedure:
(§3) FIG. 7 depicts the effect of TGF-β1 on DNA synthesis (A), cell growth (B) and PAI-1 expression (C) in MEF and PEA-13 cells. (A) Cells were treated with various concentrations of TGF-β1 as indicated. DNA synthesis was determined by measuring [methyl-^3H] thymidine incorporation into cellular DNA. The [methyl-^3H] thymidine incorporation in cells treated without TGF-β1 (100,861±3,720 and 103,262±6,722 cpm/well for MEF and PEA-13 cells, respectively) was taken as 0% inhibition. The negative values of inhibition indicate mitogenic activity. […] Each datapoint is the mean±S.D. of quadruplicate determinations. […] Data are representative of six similar experiments. (B) Cells were treated with various concentrations of TGF-β1 as indicated. The cell number was counted after a 4 day incubation. […] The negative values of the inhibition indicate the growth stimulatory activity. Each datapoint is the mean±S.D. of quadruplicate determinations. […] Data are representative of four similar experiments. (C) Cells were treated with various concentrations of TGF-β1 as indicated. The PAI-1 expression in these cells was determined by Northern blot analysis. The expression of G3PDH was used as control. The relative levels of the transcripts were quantified by a PhosphoImager. Data are representative of four similar experiments. […]

The test system of experiment [9] is R1B cells. The conditions noted are these: IGFBP-3 0.5 μg/ml; cited from earlier work.
Experiment [10] has as its system PEA-13 cells. In words: [methyl-3H] thymidine incorporation, PEA-13 cells. In kind it is cell-based, mouse. The conditions noted are these: IGFBP-3 up to 1 μg/ml. The method, then:
as §3

Experiment [11] concerns Mv1Lu cells. In words: Cell growth (cell number), Mv1Lu cells. Particulars: IGFBP-3 0.5 μg/ml, 4-day. In kind it is cell-based, mink. The procedure: as §1, §2
Experiment [12] deals with 32D cells expressing vector only. Kind of experiment: [methyl-3H] thymidine incorporation, 32D cells transfected with vector only. In kind it is cell-based, murine.
For experiment [13], the system named is H1299/vector cells. Kind of experiment: Cell growth (cell number), H1299/vector cells. Particulars: TGF-β1 20 pM or IGFBP-3 1 μg/ml, 3-day. In kind it is cell-based, human.

Broadly, the Kd is a measure of binding affinity in units of concentration. In the case of “IGFBP-3: human insulin-like growth factor binding protein-3 expressed in E. Coli”, the “Specific dephosphorylation (mobility change) of IRS-2” value in [1] is listed as “induced specific dephosphorylation”. In addition, the “Electrophoretic mobility change of IRS-2 compared with Mv1Lu and R1B cells” value in experiment [2] is reported as “induced a greater increase in electrophoretic mobility”. Further, the entries for the “Effect on cell growth” value in experiment [3] and in experiment [13] were “did not appear to have a significant effect” and “acted as mitogens or growth stimulators”, respectively. Further, the Kd in [4] is 6 nM. Further, the “Inhibition of cell growth” value in experiment [5] is about 45%; in [11] it was about 70%. Moreover, in experiment [6], the “Growth inhibitory response (DNA synthesis)” value is recorded as “potent growth inhibitory response”. Further, the results for the “Inhibition of DNA synthesis” value in experiment [7], in experiment [9] and in experiment [12] were about 10%, 30-50% and “minimally or not at all”, respectively. Besides, the “Effect on DNA synthesis” value in experiment [8] and in experiment [10] was “did not appear to have a significant effect” throughout.

Source of the values: US7741283B2, “Compositions and methods for inhibiting cell proliferation” (St. Louis University, priority 2003, dated 2010).
